Results from patent publication US20020132276A1, “FACS method for detecton of GPIIb/IIIa inhibitor dependent activators in plasma samples” (priority 1999, published 2002).
Entries after “also recorded” stand apart in the source; their conditions may differ.

Columns and labels:
platelet CD62 [1] = experiment: DDPASFCA: flow cytometric detection of platelet CD62 in plasma samples with and without GPIIb/IIIa antagonist (Example 1 procedure); type: cell-based, human; set-up: key to Delta Med F12: median PE fluorescence with antagonist minus without antagonist
Procedure: 50 μL of citrated plasma from a patient eliciting a thrombocytopenic response during treatment with Compound A was added to Costar Serocluster® 96 well V-bottom microtiter plates (#3897). GPIIb/IIIa antagonist or vehicle was added (2 μL of 5μM compound A, final concentration 200 nM) was added, followed by sufficient PRP or PRP diluted into PPP to give a final platelet number of 1×10^6/well (typically 2 μL PRP). Reactions were incubated without shaking for 120 minutes. After this time, 15 μL of phycoerythrin conjugated anti-CD62 (anti-CD62-PE, Bectin Dickinson) was added. After 30 minutes the samples were diluted with 130 μL flow buffer (FB) consisting of 10 mM HEPES, 5 mM Kcl, 168 mM NaCl, 1 mM MgCl2. Samples were then transferred to 12×75 mm polystyrene and analyzed on a FACScan (Bectin Dickinson). PE fluorescence was read on FL2. Platelets were identified by their characteristic forward and side light scatter. Data from 10,000 events was obtained per sample and analyzed using Bectin Dickinson CellQuest software. The effects of GPIIb/IIIa antagonists on CD62 expression are expressed as the difference in median PE fluorescence for reactions in the presence of GPIIb/IIIa antagonist and CD62 median PE fluorescence in the absence of a GPIIb/IIIa antagonist.
The procedure was the same as in Example 1 (with modifications outlined in that example) except that where samples were limiting, only 35-40 μL of plasma was used.
Plasma from a patient who developed a thrombocytopenic episode while under therapy with Compound A was analyzed for the presence of DDPASs that might not be of immunoglobulin nature. Plasma from this previously thrombocytopenic patient (taken 17 months after the thrombocytopenia) as well as normal human plasma (negative control) and plasma from a subject known to contain DDPAS (positive control) were processed to remove immunoglobulins by passage through 1 mL protein A Hitrap® columns (Pharmacia, Inc.). The immunoglobulin-depleted plasma was free of IgG as assessed by an IgGl-specific ELISA and negative for the presence of GPIIb/IIIa antagonist-dependent anti-platelet antibodies as assessed by the DDAB ELISA assay. Plasma samples were then tested in the DDPASFCA as described in Example 1. There was no statistical difference between results for plasma samples containing immunoglobulin and those not containing immunoglobulin, Table 1.
The detection of a positive DDPAS titer in the presence of a donor plasma was assessed with dilutions of the DDPASFCA-positive plasma DPC38 into the DDPASFCA-negative plasma DPC50 using platelets from DPC50 as follows: Varying volume amounts of control plasma (DPC50), not containing DDPASs, were mixed with a the DDPAS-positive test plasma (total volume 50 μL). 1×10^6 platelets (PRP) was added. Samples were treated as in Example 1 with and without added Compound A. In the concentration range employed, DDPASs could be quantitatively measured in the test plasma. […] Thus, the signal intensity in the DDPASFCA was dose-dependent with respect to the plasma concentration for the DDPASFCA-positive subject DPC38. In contrast DDPASs were undetectable in the control plasma.
(§1) The development of DDPASs in the plasma of a patient who received Compound A and developed thrombocytopenia was analyzed using the procedure of Example 1. DDPASFCA was not determined for patient #304 prior to taking Compound A. The patient experienced thrombocytopenia after 3 days of administration of Compound A. DDPASs were subsequently detected in this patient's plasma on day 22 post-administration of Compound A and were also detected 17 months later (FIG. 2). DPC38 was used as a positive control. DPC3 was used as a negative control. […] In a prospective study, a patient with such pre-existing DDPASs could be excluded from the study, possibly preventing the clinically significant thrombocytopenic episode.

platelet CD62 [2] = experiment: Detection of ADP as a GPIIb/IIIa DDPAS by DDPASFCA; type: cell-based, human; conditions: ADP 0 μM
Procedure: Adenosine diphosphate (ADP) was evaluated as a possible DDPAS as follows: Compound A (final concentration 1 μM) or vehicle was added to 25 μL of freshly prepared PRP in wells of a 96-well microtiter plate. Another set of wells received vehicle. After 10 minutes, 2.5 μL of from each well was transferred to microtiter wells containing only 20 μL of anti-CD62-PE. After incubation for 30 minutes, samples were analyzed by flow cytometry as in Example 1.

platelet CD62 [3] = experiment: DDPASFCA in alternative microtiter plates (Costar Serocluster #3897 versus #3898); type: cell-based, human; conditions: Compound A 200 nM
Procedure: ADP and DPC38 were used as sources of DDPASs. 2 μL of citrated PRP (DPC3) was added to either Costar Serocluster® 96 well V-bottom microtiterplates (#3897) or #3898 microtiter plates (Costar Serocluster®) (rated as “hydrophilic” in nature by the manufacturer). Platelets were then treated with and without Compound A (200 nM) with the indicated concentrations of ADP. Similarly, DDPAS positive PRP (DPC38) was added to wells of both types of plates and treated with and without Compound A (200 nM). Reactions were incubated without shaking for 120 minutes. After this time, 20 μL of phycoerythrin conjugated anti-CD62 (anti-CD62-PE, Bectin Dickinson) was added. After 30 minutes the samples were diluted with 150 μL flow buffer and bound anti-CD62-PE measured as described in Example 1.
Delta SC=Delta Fluorescence for Costar Serocluster microtiter plates
Delta H=Delta Fluorescence for H3898 microtiter plates

[4] = Thrombocytopenia in a patient who received Compound A; type: in vivo, human; conditions: patient #304
Procedure: as §1

[5] = Neg. control plasma, IgG status +
[6] = Neg. control plasma, IgG status − (protein A-depleted)
[7] = Pos. control plasma, IgG status +
[8] = Pos. control plasma, IgG status − (protein A-depleted)
[9] = TCP plasma, IgG status − (protein A-depleted plasma)
[10] = platelet donor DPC38 (DDPAS positive PRP), ADP 0 uM
[11] = platelet donor DPC50 (DDPASFCA negative), ADP 0 uM

SMILES: CCCCOC(=O)N[C@@H](CNC(=O)C[C@H]1CC(c2ccc(C(=N)N)cc2)=NO1)C(=O)O [Compound A, 2(S)-[(n-butoxycarbonyl)amino]-3-[[[3-[4-(aminoiminomethyl)phenyl]isoxazolin-5(R)-yl]methylcarbonyl]amino]propionic acid]
- + compound Med F12 (platelet CD62 [1]; DPC38 0 ul, DPC50 50 ul): 12
- Delta Med F12 (platelet CD62 [1]; DPC38 0 ul, DPC50 50 ul): −8
- + compound Med F12 (platelet CD62 [1]; DPC38 8 ul, DPC50 42 ul): 64
- Delta Med F12 (platelet CD62 [1]; DPC38 8 ul, DPC50 42 ul): 20
- + compound Med F12 (platelet CD62 [1]; DPC38 10 ul, DPC50 40 ul): 73
- Delta Med F12 (platelet CD62 [1]; DPC38 10 ul, DPC50 40 ul): 17
- + compound Med F12 (platelet CD62 [1]; DPC38 12 ul, DPC50 38 ul): 88
- Delta Med F12 (platelet CD62 [1]; DPC38 12 ul, DPC50 38 ul): 17
- + compound Med F12 (platelet CD62 [1]; DPC38 17 ul, DPC50 33 ul): 135
- Delta Med F12 (platelet CD62 [1]; DPC38 17 ul, DPC50 33 ul): 21
- + compound Med F12 (platelet CD62 [1]; DPC38 25 ul, DPC50 25 ul): 271
- Delta Med F12 (platelet CD62 [1]; DPC38 25 ul, DPC50 25 ul): 79
- Delta Med F12 (platelet CD62 [1]; DPC38 50 ul, DPC50 0 ul): 304
- + compound Med F12 (platelet CD62 [1]; DPC38 50 ul, DPC50 0 ul, DPC50 platelets): 670
- Delta (median PE fluorescence with minus without compound A) (platelet CD62 [1]; [5]): −2 +/− 2
- FL2 compound A (median PE fluorescence) (platelet CD62 [1]; [5]): 16 +/− 1
- Delta (median PE fluorescence with minus without compound A) (platelet CD62 [1]; [6]): −44 +/− 15
- FL2 compound A (median PE fluorescence) (platelet CD62 [1]; [6]): 30 +/− 9
- Delta (median PE fluorescence with minus without compound A) (platelet CD62 [1]; [7]): 142 +/− 73
- FL2 compound A (median PE fluorescence) (platelet CD62 [1]; [7]): 315 +/− 27
- Delta (median PE fluorescence with minus without compound A) (platelet CD62 [1]; [8]): 122 +/− 52
- FL2 compound A (median PE fluorescence) (platelet CD62 [1]; [8]): 297 +/− 33
- Delta (median PE fluorescence with minus without compound A) (platelet CD62 [1]; TCP plasma, IgG status + (plasma)): 78 +/− 10
- FL2 compound A (median PE fluorescence) (platelet CD62 [1]; TCP plasma, IgG status + (plasma), Compound A 200 nM): 154 +/− 8
- Delta (median PE fluorescence with minus without compound A) (platelet CD62 [1]; [9]): 94 +/− 25
- FL2 compound A (median PE fluorescence) (platelet CD62 [1]; [9]): 156 +/− 20
- DDPASs in patient plasma (platelet CD62 [1]; patient #304, 17 months later): also detected
- DDPASs in patient plasma (platelet CD62 [1]; patient #304, day 22 post-administration of Compound A): detected; also recorded: DDPASFCA positive
- DDPASs in plasmas of DDAB ELISA positive patients (platelet CD62 [1]; pre-dose and study exit plasma, patients without clinically significant thrombocytopenia, except sample 099016): no substantial DDPASs
- + compound Med F12 (platelet CD62 [2]; Compound A 1 μM alone): 11
- Delta Med F12 (platelet CD62 [2]; with minus without Compound A 1 μM): −1
- Delta CS (Delta Fluorescence for Costar Serocluster microtiter plates) (platelet CD62 [3]; platelet donor DPC3, ADP 0 uM): 24
- Delta H (Delta Fluorescence for H3898 microtiter plates) (platelet CD62 [3]; platelet donor DPC3, ADP 0 uM): 28
- Delta CS (Delta Fluorescence for Costar Serocluster microtiter plates) (platelet CD62 [3]; [10]): 190
- Delta H (Delta Fluorescence for H3898 microtiter plates) (platelet CD62 [3]; [10]): 338
- Delta CS (Delta Fluorescence for Costar Serocluster microtiter plates) (platelet CD62 [3]; [11]): 0
- Delta H (Delta Fluorescence for H3898 microtiter plates) (platelet CD62 [3]; [11]): −1
- time to thrombocytopenia after start of administration [4]: 3 days
